Activity calls are given as the source filed them. The calls are words filed in the database; no cut-off is given here. *1 amine or outer side, *2 acyl side, *3 side chain or, on linkers, in order; H or OH if unused. Where a SMILES comes first, the peptide text is derived from it. Bridges are numbered along the chain shown (N, C = ends). [ ]: non-standard residue; d: D form. X5 = O=C(O)CCCCCCCCCCCCCCCCC(=O)NC(CCC(=O)NCCOCCOCC(=O)NCCOCCOCC(=O)NCCCCCCNC(=O)C(CCCCNC(=O)CCN1C(=O)CC([*:2])C1=O)NC(=O)CCN1C(=O)CC([*:1])C1=O)C(=O)O; Aib = CC(C)(N)C(=O)O
Assays:
Mus musculus [1] = assay: Reduction in fasted hyperglycemia in C57BL/6 mouse model of diet induced obesity at 25 nmol/kg, sc dosed every 2 days for 1 week relative to control; type: functional, organism-based; settings: time 1.0 weeks
Mus musculus [2] = assay: Hypoglycemic activity in non-fasted db/db mouse assessed as decrease in blood glucose concentration at 25 nmol/kg, sc by OGTT method; type: functional, organism-based
serum albumin = serum albumin (Homo sapiens, UniProt P02768); assay: Binding affinity to human serum albumin in PBS pH 7.4 at 100 ug/mL incubated for 2 hrs by LC-MS/MS analysis relative to control; type: ADME; settings: at 100 µg/mL, read-out: PB (converted)
Chain of serum albumin (P02768 whole entry): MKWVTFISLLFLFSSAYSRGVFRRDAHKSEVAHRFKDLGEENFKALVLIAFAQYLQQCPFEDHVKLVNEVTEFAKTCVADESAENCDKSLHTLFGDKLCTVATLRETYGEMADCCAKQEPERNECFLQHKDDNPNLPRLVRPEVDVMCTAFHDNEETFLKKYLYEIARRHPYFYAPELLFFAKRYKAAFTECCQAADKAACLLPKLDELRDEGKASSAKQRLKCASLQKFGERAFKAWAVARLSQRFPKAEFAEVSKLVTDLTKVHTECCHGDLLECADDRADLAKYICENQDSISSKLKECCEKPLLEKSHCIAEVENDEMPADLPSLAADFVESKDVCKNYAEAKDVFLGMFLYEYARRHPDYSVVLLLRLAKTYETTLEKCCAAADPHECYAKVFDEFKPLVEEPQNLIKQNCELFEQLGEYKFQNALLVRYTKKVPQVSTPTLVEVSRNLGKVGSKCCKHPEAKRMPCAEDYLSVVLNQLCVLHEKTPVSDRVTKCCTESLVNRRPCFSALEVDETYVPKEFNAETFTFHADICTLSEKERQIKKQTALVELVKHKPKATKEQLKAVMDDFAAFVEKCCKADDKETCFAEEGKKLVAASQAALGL

[3] = molecular target: T1, Glucagon-like peptide 1 receptor (Homo sapiens, UniProt P43220); assay: Agonist activity at human GLP-1R expressed in HEK293 cells assessed as stimulation of cAMP accumulation incubated for 20 mins in presence of 4.4% HSA; type: functional, cell-based
T1 sequence (P43220 whole entry): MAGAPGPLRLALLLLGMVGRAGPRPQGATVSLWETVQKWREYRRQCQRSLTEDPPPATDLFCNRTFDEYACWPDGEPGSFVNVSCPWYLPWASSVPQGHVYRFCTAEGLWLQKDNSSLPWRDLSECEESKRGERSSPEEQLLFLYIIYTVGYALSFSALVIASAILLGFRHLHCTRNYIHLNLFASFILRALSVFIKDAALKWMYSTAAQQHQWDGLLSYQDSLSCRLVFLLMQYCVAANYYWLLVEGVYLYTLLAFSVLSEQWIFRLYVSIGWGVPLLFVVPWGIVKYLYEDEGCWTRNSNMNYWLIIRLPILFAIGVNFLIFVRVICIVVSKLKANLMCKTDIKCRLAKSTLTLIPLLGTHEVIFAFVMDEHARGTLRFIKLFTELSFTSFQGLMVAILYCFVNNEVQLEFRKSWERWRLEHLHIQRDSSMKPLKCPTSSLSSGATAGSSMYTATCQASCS

[4] = molecular target: T1, Glucagon-like peptide 1 receptor; assay: Ratio of EC50 for agonist activity at human GLP-1R expressed in HEK293 cells in presence of 4.4% HSA to EC50 for agonist activity at human GLP-1R expressed in HEK293 cells in presence of 0% HSA; type: cell-based
Mus musculus [5] = assay: Reduction in body weight in C57BL/6 mouse model of diet induced obesity at 25 nmol/kg, sc dosed every 2 days for 1 week relative to control; type: functional; design: scale not given: the % may be the effect or the level left; settings: time 1 weeks
Mus musculus [6] = assay: Hypoglycemic activity in non-fasted db/db mouse assessed as duration of time during which decrease in blood glucose concentration is observed at 25 nmol/kg, sc by OGTT method; type: functional
[7] = molecular target: T1, Glucagon-like peptide 1 receptor; assay: Agonist activity at human GLP-1R expressed in HEK293 cells assessed as stimulation of cAMP accumulation incubated for 20 mins in presence of 0% HSA; type: functional, cell-based
Mus musculus [8] = assay: Reduction in food intake in C57BL/6 mouse model of diet induced obesity at 25 nmol/kg, sc dosed every 2 days for 1 week relative to control; type: functional, organism-based; settings: time 1.0 weeks

fraction unbound at 2 h, 100 ug/mL (serum albumin)	EC50 [3]	Ratio EC50 [4]	EC50 [7]	Molecule	Activity (Mus musculus [1])	Activity (Mus musculus [2])	Activity (Mus musculus [5])	Time (Mus musculus [6])	Activity (Mus musculus [8])
0.074	2.8 nM	47.5	0.059 nM	CC[C@H](C)[C@H](NC(=O)[C@H](CC(C)C)NC(=O)[C@H](Cc1c[nH]c2ccccc12)NC(=O)[C@H](CCC(=O)O)NC(=O)[C@@H](NC(=O)[C@H](Cc1ccccc1)NC(=O)[C@@H]1CSC2CC(=O)N(CCC(=O)NC(C(=O)NCCCCCCNC(=O)COCCOCCNC(=O)CCC(NC(=O)CCCCCCCCCCCCCCCCC(=O)O)C(=O)O)CCCCNC(=O)CCN3C(=O)CC(SC[C@H](NC(=O)[C@H](Cc4ccc(O)cc4)NC(=O)[C@H](CCC(=O)O)NC(=O)[C@@H](NC(=O)[C@@H](NC(=O)[C@H](CC(=O)O)NC(=O)[C@H](CC(N)=O)NC(=O)[C@@H](NC(=O)[C@H](Cc4ccc(O)cc4)NC(=O)[C@@H](NC(=O)CNC(=O)[C@H](CCC(=O)O)NC(=O)C(C)(C)NC(=O)[C@@H](N)Cc4c[nH]cn4)[C@@H](C)O)[C@@H](C)O)C(C)C)[C@@H](C)O)C(=O)N[C@@H](CCC(=O)O)C(=O)N[C@@H](CCC(=O)O)C(=O)N[C@@H](CCC(=O)O)C(=O)N[C@@H](C)C(=O)N[C@@H](C)C(=O)N[C@@H](CCCCN)C(=O)N1)C3=O)C2=O)[C@@H](C)CC)C(=O)N[C@@H](CCCCN)C(=O)NCC(=O)N[C@@H](CCCCN)C(N)=O (some centres undefined) (HELM PEPTIDE1{H.[Aib].E.G.T.Y.T.N.D.V.T.E.Y.C.E.E.E.A.A.K.C.F.I.E.W.L.I.K.G.K.[am]}|CHEM1{[O=C(O)CCCCCCCCCCCCCCCCC(=O)NC(CCC(=O)NCCOCCOCC(=O)NCCCCCCNC(=O)C(CCCCNC(=O)CCN1C(=O)CC([*:1])C1=O)NC(=O)CCN1C(=O)CC([*:2])C1=O)C(=O)O]}$PEPTIDE1,CHEM1,14:R3-1:R1|PEPTIDE1,CHEM1,21:R3-1:R2$$$V2.0)	Active	Active	9.8%	24 h	Active
0.084	3.8 nM	55.1	0.069 nM	CC[C@H](C)[C@@H]1NC(=O)[C@H](CC(C)C)NC(=O)[C@H](Cc2c[nH]c3ccccc23)NC(=O)[C@H](CCC(=O)O)NC(=O)[C@H]([C@@H](C)CC)NC(=O)[C@H](Cc2ccccc2)NC(=O)[C@@H](NC(=O)[C@H](CCCCN)NC(=O)[C@H](C)NC(=O)[C@H](C)NC(=O)[C@H](CCC(=O)O)NC(=O)[C@H](CCC(=O)O)NC(=O)[C@H](CCC(=O)O)NC(=O)[C@H](CC(C)C)NC(=O)[C@H](Cc2ccc(O)cc2)NC(=O)[C@H](CCC(=O)O)NC(=O)[C@@H](NC(=O)[C@@H](NC(=O)[C@H](CC(=O)O)NC(=O)[C@H](CC(N)=O)NC(=O)[C@@H](NC(=O)[C@H](Cc2ccc(O)cc2)NC(=O)[C@@H](NC(=O)CNC(=O)[C@H](CCC(=O)O)NC(=O)C(C)(C)NC(=O)[C@@H](N)Cc2c[nH]cn2)[C@@H](C)O)[C@@H](C)O)C(C)C)[C@@H](C)O)CSC2CC(=O)N(CCC(=O)NC(C(=O)NCCCCCCNC(=O)COCCOCCNC(=O)CCC(NC(=O)CCCCCCCCCCCCCCCCC(=O)O)C(=O)O)CCCCNC(=O)CCN3C(=O)CC(SC[C@@H](C(=O)NCC(=O)N[C@@H](CCCCN)C(N)=O)NC1=O)C3=O)C2=O (some centres undefined) (HELM PEPTIDE1{H.[Aib].E.G.T.Y.T.N.D.V.T.E.Y.L.E.E.E.A.A.K.C.F.I.E.W.L.I.C.G.K.[am]}|CHEM1{[O=C(O)CCCCCCCCCCCCCCCCC(=O)NC(CCC(=O)NCCOCCOCC(=O)NCCCCCCNC(=O)C(CCCCNC(=O)CCN1C(=O)CC([*:2])C1=O)NC(=O)CCN1C(=O)CC([*:1])C1=O)C(=O)O]}$PEPTIDE1,CHEM1,21:R3-1:R1|PEPTIDE1,CHEM1,28:R3-1:R2$$$V2.0)	Active	Active	13.4%	24 h	Active
0.033	2.7 nM	79.4	0.034 nM	H-H[Aib]EGTYTNDVTEYLEEEAAKCFIEWLICGKPSSGAPPSKKKKKK-NH2 (linker 21-28 via X5)	Active	Active	10.6%	24 h	–

Molecule	fraction unbound at 2 h, 100 ug/mL (serum albumin)	EC50 [3]	Ratio EC50 [4]	EC50 [7]	Activity (Mus musculus [1])	Activity (Mus musculus [2])	Activity (Mus musculus [5])	Time (Mus musculus [6])	Activity (Mus musculus [8])
CC[C@H](C)[C@H](NC(=O)[C@H](CC(C)C)NC(=O)[C@H](Cc1c[nH]c2ccccc12)NC(=O)[C@H](CCC(=O)O)NC(=O)[C@@H](NC(=O)[C@H](Cc1ccccc1)NC(=O)[C@@H]1CSC2CC(=O)N(CCC(=O)NC(C(=O)NCCCCCCNC(=O)COCCOCCNC(=O)COCCOCCNC(=O)CCC(NC(=O)CCCCCCCCCCCCCCCCC(=O)O)C(=O)O)CCCCNC(=O)CCN3C(=O)CC(SC[C@H](NC(=O)[C@H](Cc4ccc(O)cc4)NC(=O)[C@H](CCC(=O)O)NC(=O)[C@@H](NC(=O)[C@@H](NC(=O)[C@H](CC(=O)O)NC(=O)[C@H](CC(N)=O)NC(=O)[C@@H](NC(=O)[C@H](Cc4ccc(O)cc4)NC(=O)[C@@H](NC(=O)CNC(=O)[C@H](CCC(=O)O)NC(=O)C(C)(C)NC(=O)[C@@H](N)Cc4c[nH]cn4)[C@@H](C)O)[C@@H](C)O)C(C)C)[C@@H](C)O)C(=O)N[C@@H](CCC(=O)O)C(=O)N[C@@H](CCC(=O)O)C(=O)N[C@@H](CCC(=O)O)C(=O)N[C@@H](C)C(=O)N[C@@H](C)C(=O)N[C@@H](CCCCN)C(=O)N1)C3=O)C2=O)[C@@H](C)CC)C(=O)N[C@@H](CCCCN)C(=O)NCC(=O)N[C@@H](CCCCN)C(=O)N1CCC[C@H]1C(=O)N[C@@H](CO)C(=O)N[C@@H](CO)C(=O)NCC(=O)N[C@@H](C)C(=O)N1CCC[C@H]1C(=O)N1CCC[C@H]1C(=O)N1CCC[C@H]1C(=O)N[C@@H](CO)C(N)=O (some centres undefined) (HELM PEPTIDE1{H.[Aib].E.G.T.Y.T.N.D.V.T.E.Y.C.E.E.E.A.A.K.C.F.I.E.W.L.I.K.G.K.P.S.S.G.A.P.P.P.S.[am]}|CHEM1{[O=C(O)CCCCCCCCCCCCCCCCC(=O)NC(CCC(=O)NCCOCCOCC(=O)NCCOCCOCC(=O)NCCCCCCNC(=O)C(CCCCNC(=O)CCN1C(=O)CC([*:1])C1=O)NC(=O)CCN1C(=O)CC([*:2])C1=O)C(=O)O]}$PEPTIDE1,CHEM1,14:R3-1:R1|PEPTIDE1,CHEM1,21:R3-1:R2$$$V2.0)	0.047	2.7 nM	108	0.025 nM	Active	Active	13.8%	24 h	–

— ChEMBL document CHEMBL4699602, “Stapled and Xenopus Glucagon-Like Peptide 1 (GLP-1)-Based Dual GLP-1/Gastrin Receptor Agonists with Improved Metabolic Benefits in Rodent Models of Obesity and Diabetes” (J Med Chem, 2020)
